Results: ChEMBL document CHEMBL1201862, “PubChem BioAssay data set” (2004)
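Following 48 hours of exposure in 96-well plates, responses at five concentrations were used to interpolate endpoints linearly. GI50 = concentration required for 50% inhibition of growth.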 Calls of active or inactive are those of the source. No stated cut-off is given here; in the data, active = GI50 up to about 1.1 µM and inactive = higher.

Assays:
Assay in all cases: NCI anticancer screen, dose series, 48 h
[1] = system: NCI/ADR-RES
[2] = system: SW-620
[3] = system: TK-10
[4] = system: NCI-H460
[5] = system: SK-OV-3
[6] = system: NCI-H226
[7] = system: OVCAR-3
[8] = system: MDA-MB-435
[9] = system: MDA-N
[10] = system: LOX IMVI
[11] = system: Hs-578T
[12] = system: COLO 205
[13] = system: HOP-62
[14] = system: UO-31
[15] = system: SK-MEL-2
[16] = system: SNB-19
[17] = system: MDA-MB-231
[18] = system: T47D
[19] = system: 786-0
[20] = system: SR

COC(=O)C1=CSC2(S1)C(C(=O)OC)=CSc1c2ssc1=O (stereo not given)
GI50 [1]: 2.87 µM (inactive) | GI50 [2]: 1.33 µM (inactive) | GI50 [3]: 2.42 µM (inactive) | GI50 [4]: 6.15 µM (inactive) | GI50 [5]: 9.42 µM (inactive) | GI50 [6]: 22.7 µM (inactive) | GI50 [7]: 1.81 µM (inactive) | GI50 [8]: 1.72 µM (inactive) | GI50 [9]: 2.13 µM (inactive) | GI50 [10]: 1.64 µM (inactive) | GI50 [11]: 2.36 µM (inactive) | GI50 [12]: 1.87 µM (inactive) | GI50 [13]: 3.06 µM (inactive) | GI50 [14]: 1.84 µM (inactive) | GI50 [15]: 1.96 µM (inactive) | GI50 [16]: 6.05 µM (inactive) | GI50 [17]: 1.85 µM (inactive) | GI50 [18]: 2.14 µM (inactive) | GI50 [19]: 1.57 µM (inactive)

Cc1ccc(Nc2nc(C)c(C(=O)CC(=O)C(=O)Nc3c(C)cccc3C(C)(C)C)s2)cc1
GI50 [1]: > 100 µM (inactive) | GI50 [2]: > 100 µM (inactive) | GI50 [3]: > 100 µM (inactive) | GI50 [4]: > 100 µM (inactive) | GI50 [5]: > 100 µM (inactive) | GI50 [6]: > 100 µM (inactive) | GI50 [7]: > 100 µM (inactive) | GI50 [8]: > 100 µM (inactive) | GI50 [9]: > 100 µM (inactive) | GI50 [10]: > 100 µM (inactive) | GI50 [11]: 56 µM (inactive) | GI50 [12]: > 100 µM (inactive) | GI50 [13]: 38.5 µM (inactive) | GI50 [14]: > 100 µM (inactive) | GI50 [15]: > 100 µM (inactive) | GI50 [16]: > 100 µM (inactive) | GI50 [17]: 42.9 µM (inactive) | GI50 [18]: > 100 µM (inactive) | GI50 [19]: 75.9 µM (inactive)

Nc1ccn([C@H]2CO[C@@H](CO)[C@@H]2O)c(=O)n1
GI50 [20]: > 100 µM (inactive) | GI50 [1]: > 100 µM (inactive) | GI50 [2]: > 100 µM (inactive) | GI50 [3]: > 100 µM (inactive) | GI50 [4]: > 100 µM (inactive) | GI50 [5]: > 100 µM (inactive) | GI50 [6]: > 100 µM (inactive) | GI50 [7]: > 100 µM (inactive) | GI50 [8]: > 100 µM (inactive) | GI50 [9]: > 100 µM (inactive) | GI50 [10]: > 100 µM (inactive) | GI50 [12]: > 100 µM (inactive) | GI50 [13]: > 100 µM (inactive) | GI50 [14]: > 100 µM (inactive) | GI50 [15]: > 100 µM (inactive) | GI50 [17]: > 100 µM (inactive) | GI50 [18]: > 100 µM (inactive) | GI50 [19]: > 100 µM (inactive)

C=C(C)[C@@H]1CCC2=C[C@H](OC2=O)[C@@]2(C)C[C@@H]2C(=O)/C=C(/C)C(=O)[C@H]1OC(C)=O
GI50 [1]: 26.5 µM (inactive) | GI50 [2]: 14 µM (inactive) | GI50 [3]: 24.5 µM (inactive) | GI50 [4]: 30.1 µM (inactive) | GI50 [5]: > 51.9 µM (inactive) | GI50 [6]: 23.9 µM (inactive) | GI50 [7]: 14.3 µM (inactive) | GI50 [8]: 13.2 µM (inactive) | GI50 [9]: 8.67 µM (inactive) | GI50 [10]: 7.78 µM (inactive) | GI50 [11]: 16.9 µM (inactive) | GI50 [12]: 18.3 µM (inactive) | GI50 [13]: 34.6 µM (inactive) | GI50 [14]: 10.9 µM (inactive) | GI50 [15]: 26.3 µM (inactive) | GI50 [16]: 29.2 µM (inactive) | GI50 [17]: 36.4 µM (inactive) | GI50 [18]: 5.64 µM (inactive) | GI50 [19]: 11.4 µM (inactive)

COCN1C(=O)[C@@H]2C[C@@H](OC/C=C/CBr)CN2C(=O)c2ccccc21
GI50 [1]: 26.9 µM (inactive) | GI50 [2]: 13.9 µM (inactive) | GI50 [3]: 19.3 µM (inactive) | GI50 [5]: 33.3 µM (inactive) | GI50 [6]: 9.38 µM (inactive) | GI50 [8]: 14.9 µM (inactive) | GI50 [9]: 15.8 µM (inactive) | GI50 [10]: 2.04 µM (inactive) | GI50 [11]: 26.5 µM (inactive) | GI50 [12]: 15.8 µM (inactive) | GI50 [13]: 22.7 µM (inactive) | GI50 [14]: 18.9 µM (inactive) | GI50 [15]: 29.7 µM (inactive) | GI50 [16]: 21.3 µM (inactive) | GI50 [17]: 17.5 µM (inactive) | GI50 [18]: 19.5 µM (inactive) | GI50 [19]: 21.5 µM (inactive)

O=C1C(=Cc2cccc(O)c2)N=C(c2ccccc2)N1n1c(-c2ccccc2)nc2ccccc2c1=O
GI50 [20]: 16.4 µM (inactive) | GI50 [1]: 68.5 µM (inactive) | GI50 [2]: 42.3 µM (inactive) | GI50 [3]: 48.3 µM (inactive) | GI50 [4]: 23.6 µM (inactive) | GI50 [5]: 33.3 µM (inactive) | GI50 [6]: 0.48 µM (active) | GI50 [7]: 22.4 µM (inactive) | GI50 [8]: 35.6 µM (inactive) | GI50 [10]: 23.4 µM (inactive) | GI50 [11]: 14.3 µM (inactive) | GI50 [12]: 31.4 µM (inactive) | GI50 [14]: 27.2 µM (inactive) | GI50 [16]: 25.9 µM (inactive) | GI50 [17]: 36.9 µM (inactive) | GI50 [18]: 34.9 µM (inactive) | GI50 [19]: 39.8 µM (inactive)

CC(O[Si](c1ccccc1)(c1ccccc1)C(C)(C)C)[C@H](NC(=O)OC(C)(C)C)C(=O)O[Si](c1ccccc1)(c1ccccc1)C(C)(C)C (stereo not given in full)
GI50 [20]: 12.3 µM (inactive) | GI50 [1]: 14.4 µM (inactive) | GI50 [2]: 16.1 µM (inactive) | GI50 [3]: 16.9 µM (inactive) | GI50 [4]: 11.5 µM (inactive) | GI50 [5]: 16.3 µM (inactive) | GI50 [9]: 18.8 µM (inactive) | GI50 [11]: 19.2 µM (inactive) | GI50 [12]: 13.2 µM (inactive) | GI50 [13]: 18.2 µM (inactive) | GI50 [14]: 13.2 µM (inactive) | GI50 [16]: 15.5 µM (inactive) | GI50 [18]: 5.41 µM (inactive) | GI50 [19]: 13.2 µM (inactive)

COC1C(N(C)C)=C(c2ccccc2)C(=O)N2CCc3ccccc3C12 (stereo not given)
GI50 [1]: > 100 µM (inactive) | GI50 [2]: > 100 µM (inactive) | GI50 [3]: > 100 µM (inactive) | GI50 [5]: > 100 µM (inactive) | GI50 [6]: > 100 µM (inactive) | GI50 [8]: > 100 µM (inactive) | GI50 [9]: > 100 µM (inactive) | GI50 [10]: > 100 µM (inactive) | GI50 [11]: > 100 µM (inactive) | GI50 [12]: > 100 µM (inactive) | GI50 [13]: > 100 µM (inactive) | GI50 [14]: > 100 µM (inactive) | GI50 [15]: > 100 µM (inactive) | GI50 [16]: > 100 µM (inactive) | GI50 [17]: > 100 µM (inactive) | GI50 [18]: > 100 µM (inactive) | GI50 [19]: > 100 µM (inactive)
